# Measured values: patent publication US9080199B2, “Method to generate novel bioactive molecules” (priority 2010, dated 2015)
# “Also recorded” adds a separate entry of the source.
# Test system: S. aureus N315 (MRSA N315)
# Assay: Disk / agar diffusion bioactivity test (zone of inhibition) against S. aureus N315
# Type: cell-based, Staphylococcus aureus
# Conditions: clavu7 extract compounds/fractions, 25-30 μL on 6 mm filter disks on N315 lawn on TSA, 16-20 hours at 30° C.
# Description: The two compounds were separated from one another by re-injecting the 11 to 11.5 minute fraction into the LC-MS system using an isocratic mobile phase of 30% methanol in water. Once separated, the two compounds were collected, concentrated by evaporating the solvent to a total volume of approximately 50 μL, and tested against S. aureus N315 to definitively determine which one is bioactive. This turned out to be m/z=215, which was identified as holomycin. Bioactivity testing is carried out by first spreading approximately 150 μL of an OD600˜0.01 S. aureus N315 culture in TSB onto a TSA plate to create a lawn of S. aureus N315. Next, 25-30 μL of each sample is deposited onto 6 mm sterile filter disks. The disks are allowed to dry and then placed onto the S. aureus N315 lawn. This plate is incubated for 16-20 hours at 30° C., after which it was examined for the appearance of a zone of inhibition around the disks.
# The methanol sample was then concentrated further using a vacuum centrifuge (speed-vac or speed-yap) until approximately 100 μL remained. A 25 μL aliquot was then used to test for bioactivity against MRSA N315. This aliquot, which has not yet been fractionated on an HPLC system, is called a “crude extract.” About 40-50 μL of the concentrated sample was also injected into an HPLC-MS system. […]
compound,measurement,setting,value
CC(=O)Nc1c2sscc-2[nH]c1=O [holomycin],bioactivity against S. aureus N315 (zone of inhibition around disks),,inhibits growth; also recorded: bioactive
same,bioactivity against S. aureus N315 (zone of inhibition around disks),listed as m/z=215 compound,bioactive
